Numbered stars: 1 amine (or outer) side, 2 acyl side, 3 side chain; on linkers, the order of the positions; unused ones are H or OH. Bridge positions count the residues as written; N and C are the ends. Side chains are listed from the residue outwards. Peptide text beside a SMILES is read from it. * marks the point of attachment. C20 diacid = O=C(O)CCCCCCCCCCCCCCCCCCC(=O)*; γGlu = O=C(O)[C@H](CCC(=O)[*:2])N[*:1]
Experiments:
[1] = ASSAY (III) ThT fibrillation assay for physical stability; format: physicochemical
Procedure, shortened: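 Formulations with 1 μM ThT, pH adjusted as required, incubated at 37 °C with 960 rpm orbital shaking; fluorescence (ex 444/em 485 nm) read every 20 min. Fibrillation reported as mean ThT fluorescence ± SD of 4–8 replicates at time points; polypeptide concentration measured by reverse-phase HPLC before and after, post-centrifugation.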

[2] = target: T1, human amylin 3(a) receptor (human calcitonin receptor + RAMP-3) in BHK570 cells (Homo sapiens, UniProt O60896+P30988); assay: ASSAY (II)a functional assay, human amylin receptor (CRE luciferase); format: cell-based; conditions: for EC50: human amylin receptor functional potency, assay (II), read-out: hAmylin-R funct. EC50
T1 construct: expressed in transfected cells
Procedure, shortened: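 Ligand exposure 3 h at 37 °C, 5% CO2 in DMEM with 10% FBS, 10 mM Hepes pH 7.4. cAMP-driven luciferase read by luminescence after 30 min LucLite at room temperature.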

[3] = target: T2, human amylin receptor (membranes from Amylin 3(a)/CRE-luc cells) (Homo sapiens, UniProt O60896+P30988); assay: ASSAY (V) binding to the human amylin receptor (SPA, 125I-rat amylin); conditions: for IC50: Table 4, read-out: hAmylin-R bind IC50;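 on all read-outs here: competition binding of cell membranes (35 ng/µL) mixed with SPA beads in 384-well plates at 40 µL total volume, read by scintillation counting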
T2 construct: expressed in transfected cells
T2 sequence (P30988 25-474): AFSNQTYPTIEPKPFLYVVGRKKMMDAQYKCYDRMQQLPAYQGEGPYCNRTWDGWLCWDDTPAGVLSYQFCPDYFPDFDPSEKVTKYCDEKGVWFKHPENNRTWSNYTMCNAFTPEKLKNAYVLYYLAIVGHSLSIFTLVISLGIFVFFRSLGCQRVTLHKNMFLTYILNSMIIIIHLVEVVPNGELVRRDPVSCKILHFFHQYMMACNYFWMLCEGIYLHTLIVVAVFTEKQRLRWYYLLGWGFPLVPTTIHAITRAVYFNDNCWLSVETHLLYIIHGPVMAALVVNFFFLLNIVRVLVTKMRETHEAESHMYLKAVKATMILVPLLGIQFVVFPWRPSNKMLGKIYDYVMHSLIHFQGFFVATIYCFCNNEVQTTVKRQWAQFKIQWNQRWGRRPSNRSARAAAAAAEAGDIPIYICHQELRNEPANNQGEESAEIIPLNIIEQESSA
T2 sequence (O60896 24-148 partner): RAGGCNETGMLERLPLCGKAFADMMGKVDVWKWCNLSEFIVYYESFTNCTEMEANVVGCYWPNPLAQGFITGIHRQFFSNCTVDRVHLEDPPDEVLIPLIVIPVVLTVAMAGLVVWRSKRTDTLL

[4] = hCTR funct. EC50 divided by hAmylin-R funct. EC50
[5] = hCTR funct. EC50 over hAmylin-R funct. EC50
[6] = human functional selectivity: hCTR funct. EC50 / hAmylin-R funct. EC50
[7] = Table 5, selectivity, hCTR bind IC50 / hAmylin-R bind IC50
[8] = Table 5a, selectivity, hCTR bind IC50 / hAmylin-R bind IC50
[9] = Table 7, human binding selectivity, included for comparison
[10] = Table 7a (preferred compounds), human binding selectivity, included for comparison
[11] = ratio of human calcitonin receptor binding IC50 to human amylin receptor binding IC50
[12] = Table 5b, selectivity, hCTR bind IC50 / hAmylin-R bind IC50
[13] = Table 5c, selectivity, hCTR bind IC50 / hAmylin-R bind IC50

Row | ThT pH 4.0 lag time (h) [1] | Ratio hCT/hAmylin funct. [2, 4] | Ratio hCT/hAmylin funct. [2, 5] | EC50 [2] | Ratio hCT/hAmylin funct. [2, 6] | IC50 [3] | Ratio hCT/hAmylin binding [3, 7] | Ratio hCT/hAmylin binding [3, 8] | Ratio hCT/hAmylin binding [3, 9] | Ratio hCT/hAmylin binding [3, 10] | Ratio hCT/hAmylin binding [3, 11] | Ratio hCT/hAmylin binding [3, 12] | Ratio hCT/hAmylin binding [3, 13] | SMILES
1 | 45 h | 6.3 | 6.3 | 0.405 nM | 6.3 | 0.387 nM | 11.1 | 11.1 | 11.1 | 11.1 | 11.1 | – | – | CC[C@H](C)[C@H](NC(=O)[C@H](C)NC(=O)CNC(=O)[C@H](Cc1ccccc1)NC(=O)[C@H](CC(N)=O)NC(=O)[C@@H]1CCCN1C(=O)[C@H](CO)NC(=O)[C@H](CO)NC(=O)[C@H](Cc1c[nH]cn1)NC(=O)[C@H](CCCNC(=N)N)NC(=O)[C@H](CC(C)C)NC(=O)[C@H](Cc1ccccc1)NC(=O)[C@H](CCC(=O)O)NC(=O)[C@H](C)NC(=O)[C@H](CC(C)C)NC(=O)[C@H](CCCNC(=N)N)NC(=O)[C@H](CCC(N)=O)NC(=O)[C@@H](NC(=O)[C@H](C)NC(=O)[C@@H]1CSSC[C@H](NC(=O)[C@@H](N)CCCCNC(=O)CC[C@H](NC(=O)CCCCCCCCCCCCCCCCCCC(=O)O)C(=O)O)C(=O)N[C@@H](CC(N)=O)C(=O)N[C@@H]([C@@H](C)O)C(=O)N[C@@H](C)C(=O)N[C@@H]([C@@H](C)O)C(=O)N1)[C@@H](C)O)C(=O)N1CCC[C@H]1C(=O)N[C@@H](CO)C(=O)N[C@@H](CO)C(=O)N[C@H](C(=O)N[C@@H](CC(N)=O)C(=O)N[C@H](C(=O)NCC(=O)N[C@@H](Cc1c[nH]cn1)C(=O)N[C@@H](CCC(=O)O)C(=O)N[C@H](C(=O)N[C@@H](Cc1ccc(O)cc1)C(N)=O)[C@@H](C)O)C(C)C)[C@@H](C)O [Example 107] (H-K([γGlu-C20 diacid])CNTATCATQRLAEFLRHSSPNFGAIPSSTNVGHETY-NH2; disulfide 2-7 (inferred))
2 | 45 h | 6.5 | 6.5 | 0.421 nM | 6.5 | 0.232 nM | 28.5 | 28.5 | 28.5 | 28.5 | 28.5 | 28.5 | 28.5 | CC[C@H](C)[C@H](NC(=O)[C@H](C)NC(=O)CNC(=O)[C@H](Cc1ccccc1)NC(=O)[C@H](CC(N)=O)NC(=O)[C@@H]1CCCN1C(=O)[C@H](CO)NC(=O)[C@H](CO)NC(=O)[C@H](Cc1c[nH]cn1)NC(=O)[C@H](CCCNC(=N)N)NC(=O)[C@H](CC(C)C)NC(=O)[C@H](Cc1ccccc1)NC(=O)[C@H](CCC(=O)O)NC(=O)[C@H](C)NC(=O)[C@H](CC(C)C)NC(=O)[C@H](CCCNC(=N)N)NC(=O)[C@H](CCC(N)=O)NC(=O)[C@@H](NC(=O)[C@H](C)NC(=O)[C@@H]1CSSC[C@H](NC(=O)[C@@H](N)CCCCNC(=O)CC[C@H](NC(=O)CCCCCCCCCCCCCCCCCCC(=O)O)C(=O)O)C(=O)N[C@@H](CC(N)=O)C(=O)N[C@@H]([C@@H](C)O)C(=O)N[C@@H](C)C(=O)N[C@@H]([C@@H](C)O)C(=O)N1)[C@@H](C)O)C(=O)N1CCC[C@H]1C(=O)N[C@@H](CO)C(=O)N[C@@H](CO)C(=O)N[C@H](C(=O)N[C@@H](CC(N)=O)C(=O)N[C@H](C(=O)NCC(=O)N[C@@H](CCCNC(=N)N)C(=O)N[C@@H](CCC(=O)O)C(=O)N[C@H](C(=O)N[C@@H](Cc1ccc(O)cc1)C(N)=O)[C@@H](C)O)C(C)C)[C@@H](C)O [Example 108] (H-K([γGlu-C20 diacid])CNTATCATQRLAEFLRHSSPNFGAIPSSTNVGRETY-NH2; disulfide 2-7; N-terminus assumed)
3 | 35 h | 5.2 | 5.2 | – | 5.2 | – | 13.3 | 13.3 | 13.3 | 13.3 | 13.3 | 13.3 | 13.3 | CC[C@H](C)[C@H](NC(=O)[C@H](C)NC(=O)CNC(=O)[C@H](Cc1ccccc1)NC(=O)[C@H](CC(N)=O)NC(=O)[C@@H]1CCCN1C(=O)[C@H](CO)NC(=O)[C@H](CO)NC(=O)[C@H](Cc1c[nH]cn1)NC(=O)[C@H](CCCNC(=N)N)NC(=O)[C@H](CC(C)C)NC(=O)[C@H](Cc1ccccc1)NC(=O)[C@H](CCC(=O)O)NC(=O)[C@H](C)NC(=O)[C@H](CC(C)C)NC(=O)[C@H](CCCNC(=N)N)NC(=O)[C@H](CCC(N)=O)NC(=O)[C@@H](NC(=O)[C@H](C)NC(=O)[C@@H]1CSSC[C@H](NC(=O)[C@@H](N)CCCCNC(=O)CC[C@H](NC(=O)CCCCCCCCCCCCCCCCCCC(=O)O)C(=O)O)C(=O)N[C@@H](CC(N)=O)C(=O)N[C@@H]([C@@H](C)O)C(=O)N[C@@H](C)C(=O)N[C@@H]([C@@H](C)O)C(=O)N1)[C@@H](C)O)C(=O)N1CCC[C@H]1C(=O)N[C@@H](CO)C(=O)N[C@@H](CO)C(=O)N[C@H](C(=O)N[C@@H](CC(N)=O)C(=O)N[C@H](C(=O)NCC(=O)N1CCC[C@H]1C(=O)N[C@@H](CCC(=O)O)C(=O)N[C@H](C(=O)N[C@@H](Cc1ccc(O)cc1)C(N)=O)[C@@H](C)O)C(C)C)[C@@H](C)O [Example 109] (H-K([γGlu-C20 diacid])CNTATCATQRLAEFLRHSSPNFGAIPSSTNVGPETY-NH2; disulfide 2-7 (inferred); N-terminus assumed)
4 | 17 h | 29.3 | 29.3 | 0.278 nM | 29.3 | 0.326 nM | 53.6 | 53.6 | 53.6 | 53.6 | 53.6 | 53.6 | 53.6 | CC[C@H](C)[C@H](NC(=O)[C@H](C)NC(=O)CNC(=O)[C@H](Cc1ccccc1)NC(=O)[C@H](CC(N)=O)NC(=O)[C@@H]1CCCN1C(=O)[C@H](CO)NC(=O)[C@H](CO)NC(=O)[C@H](Cc1c[nH]cn1)NC(=O)[C@H](CCCNC(=N)N)NC(=O)[C@H](CC(C)C)NC(=O)[C@H](Cc1ccccc1)NC(=O)[C@H](CCC(=O)O)NC(=O)[C@H](C)NC(=O)[C@H](CC(C)C)NC(=O)[C@H](CCCNC(=N)N)NC(=O)[C@H](CCC(N)=O)NC(=O)[C@@H](NC(=O)[C@H](C)NC(=O)[C@@H]1CSSC[C@H](NC(=O)[C@@H](N)CCCCNC(=O)CC[C@H](NC(=O)CC[C@H](NC(=O)CCCCCCCCCCCCCCCCCCC(=O)O)C(=O)O)C(=O)O)C(=O)N[C@@H](CC(N)=O)C(=O)N[C@@H]([C@@H](C)O)C(=O)N[C@@H](C)C(=O)N[C@@H]([C@@H](C)O)C(=O)N1)[C@@H](C)O)C(=O)N1CCC[C@H]1C(=O)N[C@@H](CO)C(=O)N[C@@H](CO)C(=O)N[C@H](C(=O)N[C@@H](CC(N)=O)C(=O)N[C@H](C(=O)NCC(=O)N1CCC[C@H]1C(=O)N[C@@H](CCCNC(=N)N)C(=O)N[C@H](C(=O)N[C@@H](Cc1ccc(O)cc1)C(N)=O)[C@@H](C)O)C(C)C)[C@@H](C)O [Example 110] (H-K([γGlu-γGlu-C20 diacid])CNTATCATQRLAEFLRHSSPNFGAIPSSTNVGPRTY-NH2; disulfide 2-7)

— patent publication US9023789B2, “Amylin analogs and pharmaceutical compositions thereof” (Novo Nordisk A/S, priority 2012, dated 2015)
